Measured values: patent US20230048888A1, “USE OF TRIAZOLOTRIAZINE DERIVATIVE IN TREATMENT OF DISEASES” (ZHEJIANG VIMGREEN PHARMACEUTICALS, LTD., priority 2019, published 2023)
pIC50: −log10 of the molar value.

Assays:
adenosine receptors A2A = target: T1, adenosine receptors A2A (Homo sapiens, UniProt P29274); assay: TR-FRET-based cAMP accumulation assay in hADORA2A-HEK293 cells; assay type: cell-based; conditions: NECA at EC80, hADORA2A-HEK293, read-out: A2AR activity (IC50)
T1 construct: expressed in transfected cells; host or cells: HEK293 (hADORA2A-HEK293)
T1 sequence (P29274 whole entry): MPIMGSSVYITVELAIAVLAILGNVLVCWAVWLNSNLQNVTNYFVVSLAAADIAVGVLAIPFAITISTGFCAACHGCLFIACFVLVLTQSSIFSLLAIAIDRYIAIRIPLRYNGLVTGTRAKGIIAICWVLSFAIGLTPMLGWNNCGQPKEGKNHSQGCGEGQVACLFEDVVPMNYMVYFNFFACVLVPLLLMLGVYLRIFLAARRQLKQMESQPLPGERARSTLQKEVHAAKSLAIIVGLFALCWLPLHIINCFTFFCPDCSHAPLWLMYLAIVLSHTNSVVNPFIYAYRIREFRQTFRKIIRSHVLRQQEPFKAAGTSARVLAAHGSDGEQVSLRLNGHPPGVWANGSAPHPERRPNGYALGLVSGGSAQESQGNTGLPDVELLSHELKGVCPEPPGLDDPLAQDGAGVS
Experimental: The inhibitory effects of the test compounds on the adenosine receptors A2A were evaluated by TR-FRET-based cAMP accumulation assay. The method included, in HEK293 cells (hADORA2A-HEK293) expressing A2AR, the production of cAMP stimulated by NECA and the inhibitory effect of A2A receptor antagonists on cAMP. All cells were cultured in a complete medium at 37° C. in the presence of 5% CO2. After being digested with trypsin, the cells were collected by centrifugation at 200 g for 5 minutes. The cells were resuspended in a fresh complete medium, and then the cell viability was counted by a trypan blue exclusion method. […] The cells were diluted with Hank's buffer solution containing HEPES (5 mM), BSA stabilizer (0.1%) and Rolipram (10 μM), then added to a 384-well white non-transparent plate (cells/well, 10 μl/well), and incubated with the test compound at an appropriate concentration (11 concentrations) for 20 minutes at room temperature. Then, the A2A receptor agonist NECA (final concentration=EC80, which was determined in the same experiment performed earlier) was added to the sample, and the sample was incubated again at 37° C. for 30 minutes.
An inhibition rate (%) was calculated according to the following formula, and an IC50 value was calculated from a concentration-inhibition (%) curve after log conversion.
A curve corresponding to the dose was fitted by using XLfit software and the IC50 was determined.

[1] = Pharmacokinetics of Compounds 27, 16, 14 and 22 in SD rats; assay type: in vivo; conditions: for AUC(0-t) / Cmax / half-life / clearance: Sprague-Dawley, rat, in vivo; for clearance: read-out: Cl—pred (converted)
Description: (§1) WinNonlin® 6.4 was used as the calculation software for PK parameters.

[2] = Pharmacokinetics of test compounds in SD rats (15.2; IV and PO, mixed administration); assay type: in vivo; conditions: male, Sprague-Dawley, rat, plasma; SD rats, PO, 2 mg/kg, mixed administration (6 compounds per group)
Experimental: Administration dose: the compounds in this group were all administered in a mixed way, with 6 compounds in each group for mixed PO administration.
Blood was collected based on the blood collection points in the test protocol. 50 μL of plasma sample was added with acetonitrile (containing 5 ng/mL Verapamil) being 3 folds of the volume thereof; the resulting mixture was vortexed for 30 s, and then centrifuged for 15 min at 15,000 rpm at 4° C.; and 10μ L of supernatant was taken for LC-MS/MS analysis.
For each compound, 3 male SD rats weighing 200-220 g were fasted for one night before dosage, but had access to water.
Orally intragastric administration: before intragastric administration and at 0.083 h, 0.25 h, 0.5 h, 1 h, 2 h, 4 h, 8 h and 24 h after administration (for Compounds 40, 27, 40 and 47), or at 0.25 h, 0.5 h, 1 h, 4 h, 6 h and 8 h after administration (for Compounds 44 and 48), orbital blood was collected and put in a test tube that was treated with heparin sodium, and after centrifugation, the supernatant plasma was collected for LC-MS/MS analysis.
The plasma samples were processed according to the method for “sample treatment” and then analyzed by LC-MS/MS, accompanied with the standard curve and quality control samples. At a time point when the upper limit of quantification was exceeded, the samples were diluted 10 or 100 folds for analysis. All measured data were collected and processed by Analyst 1.6.3 software, and the data were calculated and processed with Microsoft Excel. With DAS 3.2.8 software, the pharmacokinetic parameters were calculated by the statistical moment method. The pharmacokinetic parameters mainly include Tmax, t1/2, Cmax, AUC(0-t), etc.

[3] = Pharmacokinetics of Compounds 27, 40, 22 and 41 in ICR mice in different modes of administration; assay type: in vivo; conditions: for AUC(0-t) / Cmax / half-life: ICR
Description: as §1

SMILES	pIC50 (adenosine receptors A2A)	AUC(0-t) [2] [ng·h/mL]	other results
CC1(C(=O)Nc2ccc(CCNc3nc(N)n4nc(-c5ccco5)nc4n3)cc2)CCOCC1 [Compound 6, N-(4-(2-((7-amino-2-(furan-2-yl)-[1,2,4]triazolo[1,5-a][1,3,5]triazin-5-yl)amino)ethyl)phenyl)-4-methyltetrahydro-2H-pyran-4-carboxamide]	8.03	–	–
Nc1nc(NCCc2ccc(OCCN3CCC(F)(F)C3)cc2)nc2nc(-c3ccco3)nn12 [Compound 14, N5-(4-(2-(3,3-difluoropyrrolidin-1-yl)ethoxy)phenethyl)-2-(furan-2-yl)-[1,2,4]triazolo[1,5-a][1,3,5]triazine-5,7-diamine]	–	–	Cl—F—pred ([1]; PO, dose 10 (mg/kg)): 144 mL/min/kg; F ([1]; PO, dose 10 (mg/kg)): 17.90%; AUC(0-t) ([1]; IV, dose 1 (mg/kg)): 678 ng·h/mL; Cmax ([1]; IV, dose 1 (mg/kg)): 1680 ng/mL; half-life ([1]; IV, dose 1 (mg/kg)): 0.44 h; clearance ([1]; IV, dose 1 (mg/kg)): 24.7 mL/min/kg; AUC(0-t) ([1]; PO, dose 10 (mg/kg)): 1210 ng·h/mL; Cmax ([1]; PO, dose 10 (mg/kg)): 574 ng/mL; half-life ([1]; PO, dose 10 (mg/kg)): 3.05 h
Nc1nc(NCCc2ccc(OCCN3CC[C@H](F)C3)cc2)nc2nc(-c3ccco3)nn12 [Compound 16, (S)-N5-(4-(2-(3-fluoropyrrolidin-1-yl)ethoxy)phenethyl)-2-(furan-2-yl)-[1,2,4]triazolo[1,5-a][1,3,5]triazine-5,7-diamine]	–	–	Cl—F—pred ([1]; PO, dose 10 (mg/kg)): 233 mL/min/kg; AUC(0-t) ([1]; IV, dose 1 (mg/kg)): 536 ng·h/mL; Cmax ([1]; IV, dose 1 (mg/kg)): 986 ng/mL; half-life ([1]; IV, dose 1 (mg/kg)): 0.61 h; clearance ([1]; IV, dose 1 (mg/kg)): 31.5 mL/min/kg; AUC(0-t) ([1]; PO, dose 10 (mg/kg)): 758 ng·h/mL; Cmax ([1]; PO, dose 10 (mg/kg)): 258 ng/mL; half-life ([1]; PO, dose 10 (mg/kg)): 4.78 h
Nc1nc(NCCc2ccc(NC3CCOCC3)cc2)nc2nc(-c3ccco3)nn12 [Compound 18, 2-(furan-2-yl)-N5-(4-((tetrahydro-2H-pyran-4-yl)amino)phenethyl)-[1,2,4]triazolo[1,5-a][1,3,5]triazine-5,7-diamine]	8.42	441	–
COCCN(CCOC)c1ccc(CCNc2nc(N)n3nc(-c4ccco4)nc3n2)cc1 [Compound 21, N5-(4-(bis(2-methoxyethyl)amino)phenethyl)-2-(furan-2-yl)-[1,2,4]triazolo[1,5-a][1,3,5]triazine-5,7-diamine]	8.79	603	–
COCCN(C)c1ccc(CCNc2nc(N)n3nc(-c4ccco4)nc3n2)cc1 [Compound 25, 2-(furan-2-yl)-N5-(4-((2-methoxyethyl)(methyl)amino)phenethyl)-[1,2,4]triazolo[1,5-a][1,3,5]triazine-5,7-diamine]	–	142	–
COCCOCCNc1ccc(CCNc2nc(N)n3nc(-c4ccco4)nc3n2)cc1 [Compound 28, 2-(furan-2-yl)-N5-(4-((2-(2-methoxyethoxy)ethyl)amino)phenethyl)-[1,2,4]triazolo[1,5-a][1,3,5]triazine-5,7-diamine]	8.17	757	–
COCCOCCOCCNc1ccc(CCNc2nc(N)n3nc(-c4ccco4)nc3n2)cc1 [Compound 29, 2-(furan-2-yl)-N5-(4-((2-(2-(2-methoxyethoxy)ethoxy)ethyl)amino)phenethyl)-[1,2,4]triazolo[1,5-a][1,3,5]triazine-5,7-diamine]	–	160	–
CCOCCNc1ccc(CCNc2nc(N)n3nc(-c4ccco4)nc3n2)cc1 [Compound 30, N5-(4-((2-ethoxyethyl)amino)phenethyl)-2-(furan-2-yl)-[1,2,4]triazolo[1,5-a][1,3,5]triazine-5,7-diamine]	8.45	–	–
COCC(COC)Nc1ccc(CCNc2nc(N)n3nc(-c4ccco4)nc3n2)cc1 [Compound 35, N5-(4-(1,3-dimethoxypropane-2-ylamino)phenethyl)-2-(furan-2-yl)-[1,2,4]triazolo[1,5-a][1,3,5]triazine-5,7-diamine]	8.31	1600	–
Nc1nc(NCCc2ccc(NC3COC3)cc2)nc2nc(-c3cccc(F)c3)nn12 [Compound 37, 2-(3-fluorophenyl)-N5-(4-(oxetan-3-ylamino)phenethyl)-[1,2,4]triazolo[1,5-a][1,3,5]triazine-5,7-diamine]	8.15	1830	–
CC(C)n1nnc(-c2ccc(CCNc3nc(N)n4nc(-c5ccco5)nc4n3)cc2)n1 [Compound 42, N5-(4-(2-isopropyl-2H-tetrazol-5-yl)phenethyl)-2-(furan-2-yl)-[1,2,4]triazolo[1,5-a][1,3,5]triazine-5,7-diamine]	8.04	818	–

The next lines start with results.

pIC50 (adenosine receptors A2A)	AUC(0-t) [2] [ng·h/mL]	SMILES	other results
8.06	–	CN(C)C(=O)c1ccc(CCNc2nc(N)n3nc(-c4ccco4)nc3n2)cc1 [Compound 38, 4-(2-(7-amino-2-(furan-2-yl)-[1,2,4]triazolo[1,5-a][1,3,5]triazine-5-ylamino)ethyl)-N,N-dimethylbenzamide]	–
8.10	1890	CCn1nnc(-c2ccc(CCNc3nc(N)n4nc(-c5ccco5)nc4n3)cc2)n1 [Compound 41, N5-(4-(2-ethyl-2H-tetrazol-5-yl)phenethyl)-2-(furan-2-yl)-[1,2,4]triazolo[1,5-a][1,3,5]triazine-5,7-diamine]	AUC(0-t) ([3]; mouse, in vivo, iv, 1 mg/kg): 1110 ng·h/mL; Cmax ([3]; mouse, in vivo, iv, 1 mg/kg): 2230 ng/mL; half-life ([3]; mouse, in vivo, iv, 1 mg/kg): 0.28 h; AUC(0-t) ([3]; mouse, in vivo, po, 5 mg/kg): 1800 ng·h/mL; Cmax ([3]; mouse, in vivo, po, 5 mg/kg): 1300 ng/mL; half-life ([3]; mouse, in vivo, po, 5 mg/kg): 1.85 h; Cl—F—pred ([3]; PO, 5 mg/kg): 48.7 mL/min/kg; F ([3]; PO, 5 mg/kg): 32.51%; clearance ([3]; mouse, in vivo, IV, 1 mg/kg, read-out: Cl—pred (converted)): 15.2 mL/min/kg
–	315	CCCn1nnc(-c2ccc(CCNc3nc(N)n4nc(-c5ccco5)nc4n3)cc2)n1 [Compound 43, N5-(4-(2-propyl-2H-tetrazol-5-yl)phenethyl)-2-(furan-2-yl)-[1,2,4]triazolo[1,5-a][1,3,5]triazine-5,7-diamine]	–
–	341	N#CCn1nnc(-c2ccc(CCNc3nc(N)n4nc(-c5ccco5)nc4n3)cc2)n1 [Compound 44, 2-(5-(4-(2-(7-amino-2-(furan-2-yl)-[1,2,4]triazolo[1,5-a][1,3,5]triazine-5-ylamino)ethyl)-phenyl)-2H-tetrazol-2-yl)acetonitrile]	–
–	718	N#Cc1ccc(CCNc2nc(N)n3nc(-c4ccco4)nc3n2)cc1 [Compound 45, 4-(2-(7-amino-2-(furan-2-yl)-[1,2,4]triazolo[1,5-a][1,3,5]triazine-5-ylamino)ethyl)-benzonitrile]	–
–	739	Nc1nc(NCCc2ccc(-c3nnn(CC(F)(F)F)n3)cc2)nc2nc(-c3ccco3)nn12 [Compound 46, N5-(4-(2-(2,2,2-trifluoroethyl)-2H-tetrazol-5-yl)phenethyl)-2-(furan-2-yl)-[1,2,4]triazolo[1,5-a][1,3,5]triazine-5,7-diamine]	–
–	597	Nc1nc(NCCc2ccc(-c3ccccn3)cc2)nc2nc(-c3ccco3)nn12 [Compound 48, 2-(furan-2-yl)-N5-(4-(pyridin-2-yl)phenethyl)-[1,2,4]triazolo[1,5-a][1,3,5]triazine-5,7-diamine]	–
–	420	Nc1nc(NCCc2ccc(-c3ncccn3)cc2)nc2nc(-c3ccco3)nn12 [Compound 51, 2-(furan-2-yl)-N5-(4-(pyrimidin-2-yl)phenethyl)-[1,2,4]triazolo[1,5-a][1,3,5]triazine-5,7-diamine]	–
–	388	Cn1cnc(-c2ccc(CCNc3nc(N)n4nc(-c5ccco5)nc4n3)cc2)n1 [Compound 52, 2-(furan-2-yl)-N5-(4-(1-methyl-1H-1,2,4-triazol-3-yl)phenethyl)-[1,2,4]triazolo[1,5-a][1,3,5]triazine-5,7-diamine]	–
